# Assay results as given in patent US11415513B2, “Method for determining the degree of sensitivity of a strain of fungus to an antifungal agent” (UNIVERSITE GRENOBLE ALPES, priority 2015, dated 2022).
# Starred links: 1 amine or outer side, 2 acyl side, 3 side chain; linkers in the order of their positions; H or OH if unused. Positions of bridges follow the written chain, without caps; N, C: chain ends. Non-standard residues stand in square brackets, D forms with d. Residues, ends and D or L forms follow the SMILES beside them. *: point of attachment. hTyr(3S-OH,4S-OH,3'-OSO3H) = N[C@H](C(=O)O)[C@H](O)[C@@H](O)c1ccc(O)c(OS(=O)(=O)O)c1; Orn(4R-OH,5R-OH) = O=C([C@H](C[C@@H](O)[C@@H](O)N[*:3])N[*:1])[*:2]; Pro(3S-OH,4S-Me) = C[C@H]1CN[C@H](C(=O)O)[C@H]1O; X1 = CCCCCOc1ccc(-c2cc(-c3ccc(C(=O)*)cc3)no2)cc1; Gln(3R-OH) = NC(=O)C[C@@H](O)[C@H](N)C(=O)O; Hyp = O=C(O)[C@@H]1C[C@@H](O)CN1
# Legend:
# [1] = test system: strain 13/5 of C. tropicalis; assay: Sensitivity test by HCA microscopy (chitin level, Calcofluor White); assay type: cell-based, Candida tropicalis; details: 6.5 h at 30° C., SC medium
# Experimental: The strains of Candida were incubated beforehand at 30° C. overnight in a yeast extract medium—peptone dextrose (YPD) (1% bacto peptone, 0.5% yeast extract, 2% glucose, 1.5% agar).
# Yeast colonies were then removed from YPD medium plates and suspended in a 0.9% NaCl saline solution, in which the cell concentration was estimated by optical microscopy using Kova counting slides. […]
# A step of acquiring images by automated fluorescence microscopy (ScanR screening station, Olympus), using a 40× lens and a CFW filter, made it possible to obtain 30 images per well so as to capture enough cells to provide statistically significant data. These images were analysed by software (ScanR analysis software, Olympus). Firstly, the background noise was processed so as to improve the contrast between the fluorescence of the yeasts and background noise. […] Segmentation of the fluorescent elements present in each of the acquired images was then performed using an algorithm predefined in the software, making it possible to determine the limit of each element on the basis of the fluorescence intensity of said element. […]
# Each element then corresponding to a yeast, it was thus possible, on the basis of these elements predefined beforehand, to define the fluorescence intensity for each of the yeasts, this intensity being directly correlated with the chitin content of their wall. […]
# [2] = test system: strain TOP of C. albicans; assay: Etest method (MIC); assay type: cell-based, Candida albicans; details: RPMI medium plates, 24 h at 35° C.
# Experimental: (§1) The Etest® method is a commercial test for determining the sensitivity of a strain, most frequently used routinely in clinical mycology laboratories.
# (§2) The Etest® tests were performed according to the manufacturer's instructions. After distributing a standardised Mac Farland 0.5 inoculum (equivalent of […]) over plates of RPMI medium, said plates were incubated for 24 h at 35° C., with the exception of C. glabrata in which case the incubation was extended to 48 h so as to be able to determine the minimum inhibitory concentration (MIC).
# (§3) The results of the MICs obtained were interpreted in accordance with the tables of the CLSI (Clinical and Laboratory Standards Institute) and/or of EUCAST (European Committee on Antimicrobial Susceptibility Testing) (Arendrup M C, Cuenca-Estrella M, Lass-Flörl C, Hope W W (2014) Breakpoints for antifungal agents: an update from EUCAST focussing on echinocandins against Candida spp and triazoles against Aspergillus spp. Drug Resist Updat 16(6):81-95. doi:10.1016/j.drup.2014.01.001) (cf. Table 2 taken from Maubon D, Garnaud C, Calandra T, et al. (2014) Resistance of Candida spp. to antifungal drugs in the ICU: where are we now? Intensive Care Med. doi: 10.1007/s00134-014-3404-7) which list the clinical thresholds (CBPs) for the most common species of yeast of the genus Candida as a function of different antifungal agents, or according to the table of epidemiological thresholds (ECVs).
# [3] = test system: strain 13/5 of C. tropicalis; assay: Etest method (MIC); assay type: cell-based, Candida tropicalis; details: RPMI medium plates, 24 h at 35° C.
# Experimental: as §1, §2, §3
smiles,measurement,setting,value
"CCCCCOc1ccc(-c2cc(-c3ccc(C(=O)N[C@H]4C[C@@H](O)[C@@H](O)NC(=O)[C@@H]5[C@@H](O)[C@@H](C)CN5C(=O)[C@H]([C@H](O)CC(N)=O)NC(=O)[C@H]([C@H](O)[C@@H](O)c5ccc(O)c(OS(=O)(=O)O)c5)NC(=O)[C@@H]5C[C@@H](O)CN5C(=O)[C@H]([C@@H](C)O)NC4=O)cc3)no2)cc1 [micafungin] (X1-[Orn(4R-OH,5R-OH)]T[Hyp][hTyr(3S-OH,4S-OH,3'-OSO3H)][Gln(3R-OH)][Pro(3S-OH,4S-Me)]; lactam 1-C)",phenotype of the strain with respect to the antifungal agent (HCA),[1],resistant (an increase in the chitin level having a value less than 10% or a decrease in the chitin level of less than 20% or an unchanged chitin level)
same,increase in the chitin level in the wall of the cells,"[1]; vs cells in the absence of antifungal agent, concentration gradient up to 1 μg/ml",less than 10%
same,MIC,[2]; Candida albicans,1 µg/mL
same,"phenotype by Etest MIC, interpretation by the EUCAST and CLSI tables",[2],resistant
same,MIC,[3]; Candida tropicalis,1.5 µg/mL
same,"phenotype by Etest MIC, interpretation by the CLSI table",[3],resistant
